Key:
[1] = target: T1, megalin (Mus musculus, UniProt A2ARV4); settings: in vivo
Excerpt: (§1) EPMA is an electron microprobe (EMP) instrument that analyzes the constituent elements of a substance of interest by irradiating electron beams onto the substance and measuring the wavelengths and intensities of characteristic X-rays unique to the different elements, which are generated by the electron beams. […] The behaviors of contrast media per se can be verified by analyzing iodine content distribution.
(§2) In order to use right kidneys for analysis, 3 mm-thick sections containing a kidney pedicle portion were prepared, embedded in OCT compound, freeze-fixed with liquid nitrogen, and stored at −80° C.
(§3) Next, the stored sections were sliced at a thickness of 4 μm using a cryostat (CM1850, Leica Biosystems), and the obtained slices were attached onto carbon-coated grids and freeze-dried overnight.
(§4) 378 μm^2 cortical areas in the prepared tissue slices were analyzed by EPMA (EPMA 1610, Shimadzu Corporation, Kyoto, Japan) to map iodine present in the structures of the contrast media.

[2] = test system: megalin; settings: mouse, in vivo
Excerpt: as §1, §2, §3, §4

[3] = test system: C57BL/6J mice; assay: Inhibition of contrast-induced renal injuries in murine contrast nephropathy model (Example 2); type: in vivo, mouse; settings: 200 μL iomeprol + 400 mg/kg cilastatin
Protocol: In order to confirm the ability of cilastatin to inhibit renal injuries, C57BL/6J mice were simultaneously administered with an iodinated contrast medium and cilastatin, and the results were analyzed.
Left kidneys were extracted from the C57BL/6J mice, and 14 days later, right kidney pedicles were ligated for 30 minutes. Thereafter, reperfusion was carried out. […]
a) Contrast medium+cilastatin-treated group: 200 μL of iomeprol (CM)+400 mg/kg cilastatin (CS) (100 LL) b) Contrast medium+normal saline-treated group: 200 μL of iomeprol (CM)+100 μL of NS For each of the groups, after 48 hours from the medication, blood and urine samples were collected, and serum Cr, MN and cystatin C levels, and urinary Cr, NAG and KIM-1 levels were measured. Further, right kidneys were extracted and histologically evaluated by immunostaining with KIM-1 and staining with PAS. […] Serum cystatin C and urinary KIM-1 measurements were contracted to Oriental Yeast Co., Ltd.
0.5±: Clear but weak granular staining present focally along the luminal surface of non-atrophic proximal tubules 1+: Clear but weak granular staining completely surrounding the luminal surface of non-atrophic proximal tubules 2+: Moderately intense granular staining completely surrounding the luminal surface of non-atrophic proximal tubules and extending into intercellular junctions 3+: Strong large granular staining completely surrounding the luminal surface of non-atrophic proximal tubules and extending into intercellular junctions […]
Individuals meeting these criteria were regarded as individuals with onset of contrast nephropathy.

[4] = target: T1, megalin
Excerpt: In this example, it was verified, using an electron probe microanalyzer (EPMA), whether megalin-dependent internalization of contrast media (iodine) into murine renal proximal tubular epithelial cells was inhibited by treatment with cilastatin.
C57BL/6J mice were divided into the following groups and administered with the following agents from the tail vein.
Therefore, by calculating a ratio of X-ray intensity between iodine (I) and nitrogen (N) (I/N) in a specified area of thin-film biological samples, iodine (I) levels in different samples can be relatively quantified and compared. X-ray count ratio=(X-ray count of iodine/unit area)/(X-ray count of nitrogen/(unit area))
Based on this principle, iodine levels in a specified area were relatively quantified and compared.
Further, 1980 μm^2 regions containing cortex portions were analyzed, and seven 500 μm^2 areas were chosen from the cortex portions so as not to overlap with each other. An average was calculated of the I/N X-ray ratios in the seven areas, and regarded as an I/N X-ray ratio for one individual. Those I/N X-ray ratios for six individuals in each of the a) and b) groups were quantified and compared.

[5] = test system: protein (carrier) used in Reference Example 5; settings: 0-50 mM cilastatin; 10 mM iomeprol, ioversol, iodixanol, iopromide or iohexol solid-phased beads; FIGS. 22-26
Protocol: Different solutions, as mentioned below, were prepared using 100 mM KCL buffer (as mentioned in Reference Example 4) and the protein used in Reference Example 5, and were reacted at 4° C. for 2 hours.
a) Solution containing 25 ng/μL of the protein of interest and 0 mM of the contrast medium
b) Solution containing 25 ng/μL of the protein of interest and 10 mM of the contrast medium
c) Solution containing 25 ng/μL of the protein of interest and 25 mM of the contrast medium
d) Solution containing 25 ng/μL of the protein of interest and 50 mM of the contrast medium
Next, the above-prepared solutions were each added to 5 mg of the 0 mM or 10 mM contrast solid-phased beads dispersed and washed by the procedure described in Reference Example 4, and were reacted at 4° C. for 4 hours. The solution/beads combinations adopted were as mentioned below.
Then, the different mixtures were treated by following the procedure described in Reference Example 4, and heat-eluted samples were prepared from the different reaction solutions.
Different solutions, as mentioned below, were prepared using 100 mM KCL buffer (as mentioned in Reference Example 4), and were reacted at 4° C. for 2 hours.
a′) Solution containing 25 ng/μL of the protein of interest and 0 mM of cilastatin
b′) Solution containing 25 ng/μL of the protein of interest and 10 mM of cilastatin […]

[6] = target: megalin (Rattus norvegicus, UniProt P98158); settings: 1 mg cilastatin injected in advance; 1.5 μg protein of interest; FIG. 27
Protocol: According to the method of Orlando, et al, megalin protein purified from Sprague-Dawley (SD) rat kidneys was immobilized on quartz crystals. To be specific, with the use of an immobilization kit for AFFNIX® (Initium Inc.) and according to the recommended protocol for the kit, a megalin protein solution was prepared in Buffer A as provided with the kit to a concentration of 62.5 μg/mL, and placed and immobilized onto quartz crystals mounted in a holder.
More specifically, the protein of interest was injected in aliquots of the megalin protein-immobilized quartz crystals in 200 μL of buffer to measure frequency. The same measurement was done on quartz crystals, as a control, on which the same amount of bovine serum albumin (BAS) was solid phased instead of megalin. Thus, the specific binding ability of the protein of interest to megalin was analyzed.
Further, aliquots of megalin protein-immobilized quartz crystals in a buffer in which 1 mg of cilastatin was injected in advance were mounted in the measurement instrument, and the frequency was confirmed to be stable, and then, 1.5 μg of the protein of interest was injected to measure frequency over time, whereby the antagonizing activity of cilastatin against the binding of the protein of interest to megalin was analyzed. The same experiment was performed for the control group.

T1 sequence (A2ARV4 26-4660): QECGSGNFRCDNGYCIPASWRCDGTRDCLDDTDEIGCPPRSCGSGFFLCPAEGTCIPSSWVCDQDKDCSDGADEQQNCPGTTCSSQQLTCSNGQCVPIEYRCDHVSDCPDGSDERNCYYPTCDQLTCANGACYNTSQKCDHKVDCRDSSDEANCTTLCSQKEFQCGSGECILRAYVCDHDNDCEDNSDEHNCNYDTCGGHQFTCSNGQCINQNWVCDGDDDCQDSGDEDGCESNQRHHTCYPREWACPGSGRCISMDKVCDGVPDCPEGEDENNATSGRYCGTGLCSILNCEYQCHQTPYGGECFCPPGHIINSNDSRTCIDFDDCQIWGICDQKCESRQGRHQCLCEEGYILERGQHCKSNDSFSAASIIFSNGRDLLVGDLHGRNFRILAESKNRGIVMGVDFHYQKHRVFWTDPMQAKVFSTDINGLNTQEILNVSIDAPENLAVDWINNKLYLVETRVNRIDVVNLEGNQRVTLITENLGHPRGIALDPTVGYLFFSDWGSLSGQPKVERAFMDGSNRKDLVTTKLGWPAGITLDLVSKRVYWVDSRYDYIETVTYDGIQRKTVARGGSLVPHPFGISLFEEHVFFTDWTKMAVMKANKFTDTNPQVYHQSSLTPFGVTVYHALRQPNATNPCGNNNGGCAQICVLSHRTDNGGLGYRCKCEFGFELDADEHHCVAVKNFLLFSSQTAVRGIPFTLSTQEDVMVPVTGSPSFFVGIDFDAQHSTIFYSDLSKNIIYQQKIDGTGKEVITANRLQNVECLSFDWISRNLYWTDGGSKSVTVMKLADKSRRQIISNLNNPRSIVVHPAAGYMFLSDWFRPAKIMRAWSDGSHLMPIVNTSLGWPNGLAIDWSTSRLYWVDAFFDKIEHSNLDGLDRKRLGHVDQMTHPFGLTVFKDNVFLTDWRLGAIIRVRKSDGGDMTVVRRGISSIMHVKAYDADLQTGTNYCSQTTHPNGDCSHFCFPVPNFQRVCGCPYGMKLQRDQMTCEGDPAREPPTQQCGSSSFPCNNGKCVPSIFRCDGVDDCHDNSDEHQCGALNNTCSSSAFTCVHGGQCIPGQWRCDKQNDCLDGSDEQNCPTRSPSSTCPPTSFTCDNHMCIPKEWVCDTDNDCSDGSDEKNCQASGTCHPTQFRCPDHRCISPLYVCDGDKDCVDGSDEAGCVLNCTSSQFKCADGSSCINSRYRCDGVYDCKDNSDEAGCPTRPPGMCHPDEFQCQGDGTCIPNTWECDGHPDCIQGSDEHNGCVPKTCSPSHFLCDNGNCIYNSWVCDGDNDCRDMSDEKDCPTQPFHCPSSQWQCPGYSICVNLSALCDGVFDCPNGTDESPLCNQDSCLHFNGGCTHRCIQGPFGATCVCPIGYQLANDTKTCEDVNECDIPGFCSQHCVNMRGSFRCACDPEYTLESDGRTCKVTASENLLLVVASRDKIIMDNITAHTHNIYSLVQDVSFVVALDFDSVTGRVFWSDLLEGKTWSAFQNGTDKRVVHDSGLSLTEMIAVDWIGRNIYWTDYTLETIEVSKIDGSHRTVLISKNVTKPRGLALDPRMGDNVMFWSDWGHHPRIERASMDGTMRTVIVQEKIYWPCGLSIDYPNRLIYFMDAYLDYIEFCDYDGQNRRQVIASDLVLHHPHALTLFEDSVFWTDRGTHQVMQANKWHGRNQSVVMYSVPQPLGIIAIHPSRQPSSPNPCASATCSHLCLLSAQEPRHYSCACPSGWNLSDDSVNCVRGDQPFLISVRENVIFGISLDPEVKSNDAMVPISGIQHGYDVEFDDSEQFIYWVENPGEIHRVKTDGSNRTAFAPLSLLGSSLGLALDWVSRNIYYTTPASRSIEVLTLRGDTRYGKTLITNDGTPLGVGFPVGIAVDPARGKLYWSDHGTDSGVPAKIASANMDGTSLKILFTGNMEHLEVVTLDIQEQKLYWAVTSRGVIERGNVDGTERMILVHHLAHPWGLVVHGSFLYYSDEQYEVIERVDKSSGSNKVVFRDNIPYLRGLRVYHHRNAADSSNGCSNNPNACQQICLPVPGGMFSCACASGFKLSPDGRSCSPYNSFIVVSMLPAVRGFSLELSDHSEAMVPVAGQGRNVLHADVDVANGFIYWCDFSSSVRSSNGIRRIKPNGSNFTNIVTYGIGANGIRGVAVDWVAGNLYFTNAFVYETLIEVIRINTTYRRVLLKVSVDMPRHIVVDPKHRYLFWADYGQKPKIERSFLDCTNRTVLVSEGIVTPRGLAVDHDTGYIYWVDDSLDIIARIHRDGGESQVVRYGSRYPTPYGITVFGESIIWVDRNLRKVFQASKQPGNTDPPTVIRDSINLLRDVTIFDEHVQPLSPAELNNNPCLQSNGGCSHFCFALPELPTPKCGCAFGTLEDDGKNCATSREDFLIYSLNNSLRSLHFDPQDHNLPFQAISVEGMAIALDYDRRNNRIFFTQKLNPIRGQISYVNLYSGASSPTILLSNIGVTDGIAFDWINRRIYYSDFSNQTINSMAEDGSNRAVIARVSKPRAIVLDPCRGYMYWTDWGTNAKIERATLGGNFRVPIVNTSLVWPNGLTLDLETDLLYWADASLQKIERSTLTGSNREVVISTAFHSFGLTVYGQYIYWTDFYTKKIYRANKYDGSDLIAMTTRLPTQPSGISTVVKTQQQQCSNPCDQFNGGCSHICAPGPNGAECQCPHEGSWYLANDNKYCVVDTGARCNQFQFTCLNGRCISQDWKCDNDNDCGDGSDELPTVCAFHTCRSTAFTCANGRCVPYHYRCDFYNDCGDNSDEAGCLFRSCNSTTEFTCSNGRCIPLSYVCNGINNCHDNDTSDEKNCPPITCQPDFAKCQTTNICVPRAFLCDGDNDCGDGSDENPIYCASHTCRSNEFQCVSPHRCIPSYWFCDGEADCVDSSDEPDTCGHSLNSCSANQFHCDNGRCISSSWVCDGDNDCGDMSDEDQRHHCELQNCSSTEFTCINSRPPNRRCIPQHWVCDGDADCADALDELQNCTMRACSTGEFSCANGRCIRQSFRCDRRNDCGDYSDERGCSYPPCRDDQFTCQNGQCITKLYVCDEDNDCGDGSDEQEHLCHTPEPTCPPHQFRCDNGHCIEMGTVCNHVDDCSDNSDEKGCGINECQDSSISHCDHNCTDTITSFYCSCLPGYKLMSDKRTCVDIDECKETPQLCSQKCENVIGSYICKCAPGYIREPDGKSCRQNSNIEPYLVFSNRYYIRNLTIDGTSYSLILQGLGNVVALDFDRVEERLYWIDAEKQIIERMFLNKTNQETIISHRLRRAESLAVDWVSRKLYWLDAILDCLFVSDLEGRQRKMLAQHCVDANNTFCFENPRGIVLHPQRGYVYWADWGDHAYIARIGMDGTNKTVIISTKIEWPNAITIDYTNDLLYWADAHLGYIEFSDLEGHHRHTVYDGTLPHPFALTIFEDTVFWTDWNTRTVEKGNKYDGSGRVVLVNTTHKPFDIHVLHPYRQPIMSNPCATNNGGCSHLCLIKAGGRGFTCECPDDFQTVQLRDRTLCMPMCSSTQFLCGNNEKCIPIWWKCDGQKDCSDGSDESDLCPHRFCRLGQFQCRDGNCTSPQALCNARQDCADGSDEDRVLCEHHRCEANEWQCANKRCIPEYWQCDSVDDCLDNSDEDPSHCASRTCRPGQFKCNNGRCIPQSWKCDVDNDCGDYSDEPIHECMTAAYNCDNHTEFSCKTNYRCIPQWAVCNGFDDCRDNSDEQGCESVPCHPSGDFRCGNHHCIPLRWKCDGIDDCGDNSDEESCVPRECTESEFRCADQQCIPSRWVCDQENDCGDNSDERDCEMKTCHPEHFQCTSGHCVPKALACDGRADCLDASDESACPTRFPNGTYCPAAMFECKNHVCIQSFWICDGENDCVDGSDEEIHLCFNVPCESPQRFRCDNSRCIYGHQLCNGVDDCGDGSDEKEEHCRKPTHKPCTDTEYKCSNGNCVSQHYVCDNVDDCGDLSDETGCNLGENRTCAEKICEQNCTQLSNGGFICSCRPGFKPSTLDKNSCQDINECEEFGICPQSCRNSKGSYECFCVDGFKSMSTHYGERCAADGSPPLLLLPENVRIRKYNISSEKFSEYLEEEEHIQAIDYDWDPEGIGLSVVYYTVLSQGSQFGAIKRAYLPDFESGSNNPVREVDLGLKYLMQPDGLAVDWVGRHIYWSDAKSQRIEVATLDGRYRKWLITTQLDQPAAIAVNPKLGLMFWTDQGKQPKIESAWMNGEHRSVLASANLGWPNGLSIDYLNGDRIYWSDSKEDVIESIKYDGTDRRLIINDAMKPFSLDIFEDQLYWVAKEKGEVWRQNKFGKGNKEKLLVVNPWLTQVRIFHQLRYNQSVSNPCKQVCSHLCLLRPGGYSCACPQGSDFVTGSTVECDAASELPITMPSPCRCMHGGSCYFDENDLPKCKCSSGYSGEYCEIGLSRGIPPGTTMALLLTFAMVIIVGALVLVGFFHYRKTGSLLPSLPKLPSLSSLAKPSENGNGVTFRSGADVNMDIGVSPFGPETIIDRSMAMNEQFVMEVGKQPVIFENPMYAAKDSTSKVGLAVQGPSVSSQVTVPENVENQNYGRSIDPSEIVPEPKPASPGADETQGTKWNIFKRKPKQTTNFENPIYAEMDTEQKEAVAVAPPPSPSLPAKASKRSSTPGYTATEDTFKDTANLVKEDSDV

iodine contents detected in kidney slices by EPMA, NDRG1-Cre mice versus control mice [2]	SMILES	iodine detected in kidney slices by EPMA, control mice [1]	also measured
lower	C[C@H](O)C(=O)Nc1c(I)c(C(=O)NC(CO)CO)c(I)c(C(=O)NC(CO)CO)c1I [iopamidol]	High concentrations of iodine were detected	
lower	COCC(=O)Nc1c(I)c(C(=O)NCC(O)CO)c(I)c(C(=O)N(C)CC(O)CO)c1I (stereo not shown) [iopromide]	High concentrations of iodine were detected	
lower	CC(=O)N(CC(O)CN(C(C)=O)c1c(I)c(C(=O)NCC(O)CO)c(I)c(C(=O)NCC(O)CO)c1I)c1c(I)c(C(=O)NCC(O)CO)c(I)c(C(=O)NCC(O)CO)c1I (stereo not shown) [iodixanol]	High concentrations of iodine were detected	

Second part, the molecule before the results:

SMILES	iodine contents detected in kidney slices by EPMA, NDRG1-Cre mice versus control mice [2]	iodine detected in kidney slices by EPMA, control mice [1]	also measured
CC(=O)N(CC(O)CO)c1c(I)c(C(=O)NCC(O)CO)c(I)c(C(=O)NCC(O)CO)c1I (stereo not shown) [iohexol]	lower	High concentrations of iodine were detected	
O=C(NCC(O)CO)c1c(I)c(C(=O)NCC(O)CO)c(I)c(N(CCO)C(=O)CO)c1I (stereo not shown) [ioversol]	lower		
CC1(C)C[C@@H]1C(=O)N/C(=C\CCCCSC[C@H](N)C(=O)O)C(=O)O [cilastatin, (Z)-7-[[(R)-2-amino-2-carboxyethyl]thio]-2-[[[(S)-2,2-dimethylcyclopropyl]carbonyl]amino]-2-heptenoic acid]			increase in urinary KIM-1 levels versus contrast medium+normal saline group ([3]; 48 h, FIG. 16): significantly (t-test) reduced; percentage of individuals with onset of contrast nephropathy ([3]; 48 h after medication): 0%; expression of KIM-1 in kidney tissue (staining intensity scores) versus contrast medium+normal saline group ([3]; outer cortices (S1 and S2 segments), FIG. 18): significantly (t-test) lower; detection of iodine by EPMA in kidney tissue versus contrast medium+normal saline groups ([4]; 400 mg/kg cilastatin + 100 μL contrast medium, tail vein, FIG. 11 (iomeprol)): decrease in the detection of iodine; I/N X-ray ratio in kidney cortex versus contrast medium+normal saline groups ([4]; 400 mg/kg cilastatin + 100 μL iomeprol, iohexol, ioversol or iodixanol, six individuals per group, FIGS. 12 to 15): significantly (t-test) lower; band corresponding to the protein of interest bound to contrast-bound beads, in the coexistence of cilastatin [5]: decreased; change in frequency after injection of the protein of interest onto megalin-immobilized quartz crystals (QCM) [6]: reduced

Source: US11304919B2, “Utilization of cilastatin in inhibiting renal disorder” (NIIGATA UNIVERSITY, priority 2018, dated 2022)
